For the assay, the system named is leptin production. Description: Enhancing activity for leptin production in adipocytes (ELISA). It is filed as cell-based, rat. The settings on record: leptin concentration as % of control group; for activity at 1 µM / activity at 0.001 µM / activity at 0.01 µM / activity at 0.1 µM: Rattus norvegicus, Adipocyte, read-out: Facilitating activity to produce leptin; for activity at 0.001 µM: 1 nm; for activity at 0.01 µM: 10 nm; for activity at 0.1 µM / Facilitating activity to produce leptin: 100 nm. The method in brief:
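Collagenase-dispersed epididymal adipocytes from 6-week-old male Wistar Imamichi rats, cultured in DMEM/F-12 (1:1) with test compound at final 1 µM, 100 nM, 10 nM or 1 nM (0.1% DMSO) for 24 h at 37 °C, 5% CO2. Leptin in filtrate measured by ELISA; activity = treated/DMSO-control leptin × 100 (%).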

Counter-ions that a name gives are not always drawn. Like-named read-outs stand apart in the source and are kept apart here.

In the case of `N#Cc1cccc(NC(=O)c2cc([N+](=O)[O-])ccc2Cl)c1` [Example 21, N-(3-Cyanophenyl)-(2-chloro-5-nitrophenyl)carboxamide], under “24 h”, the activity at 1 µM was 130%, the activity at 0.001 µM was 116%, the activity at 0.01 µM was found to be 120% and the activity at 0.1 µM was 150%.

`O=C(Nc1ccc([N+](=O)[O-])cc1)c1cc([N+](=O)[O-])ccc1Cl` [Example 23, N-(4-Nitrophenyl)-(2-chloro-5-nitrophenyl)carboxamide]: for the setting “24 hr”, the activity at 1 µM came to 110%, the activity at 0.001 µM is 134%, the activity at 0.01 µM came out at 138% and the activity at 0.1 µM was found to be 158%.

For the molecule `O=C(Nc1ccc([N+](=O)[O-])cn1)c1cc([N+](=O)[O-])ccc1Cl` [Example 24, N-(5-Nitropyridin-2-yl)-(2-chloro-5-nitrophenyl)carboxamide], under “24 hr”, the activity at 1 µM stood at 144%, the activity at 0.001 µM was 112%, the activity at 0.01 µM came to 121% and the activity at 0.1 µM is 143%.

On to `O=C(Nc1cccc([N+](=O)[O-])c1)c1cc([N+](=O)[O-])ccc1Cl` [Example 25, N-(3-Nitrophenyl)-(2-chloro-5-nitrophenyl)carboxamide], for which, under “24 hr”, the activity at 0.001 µM was 113%, the activity at 0.01 µM was found to be 118% and the activity at 0.1 µM turned out to be 156%.

Turning to `O=C(Nc1cc([N+](=O)[O-])ccc1Cl)c1cc([N+](=O)[O-])ccc1Cl` [Example 28, N-(2-Chloro-5-nitrophenyl)-(2-chloro-5-nitrophenyl)carboxamide], for the setting “24 hr”, the activity at 1 µM was 108% and the activity at 0.1 µM came out at 120%.

Take `O=C(Nc1cccc(C(=O)N2CCCC2)c1)c1cc([N+](=O)[O-])ccc1Cl` [Example 31]: the “Facilitating activity to produce leptin” value (24 hr) is listed as 116.9%.

As for `O=C(Nc1nc(-c2cccs2)cs1)c1cc([N+](=O)[O-])ccc1Cl` [Example 36, N-[4-(2-Thienyl)thiazol-2-yl)-(2-chloro-5-nitrophenyl)carboxamide], where the note is “24 h”, the activity at 0.1 µM was determined as 120%.

Take `O=C(Nc1nc(-c2ccc3ccccc3c2)cs1)c1cc([N+](=O)[O-])ccc1Cl` [Example 42, N-[4-(2-Naphthyl)thiazol-2-yl)-(2-chloro-5-nitrophenyl)carboxamide]: for the setting “24 h”, the activity at 1 µM is 127%.

On to `O=C(Nc1nc(-c2ccc(Cl)c(Cl)c2)cs1)c1cc([N+](=O)[O-])ccc1Cl` [Example 43, N-[4-(3,4-Dichlorophenyl)thiazol-2-yl]-(2-chloro-5-nitrophenyl)carboxamide], for which, under “24 h”, the activity at 1 µM turned out to be 111% and the activity at 0.1 µM was 112%.

Regarding `O=C(Nc1ccncc1)c1cc([N+](=O)[O-])ccc1Cl` [Example 49, N-(4-Pyridyl)-(2-chloro-5-nitrophenyl)carboxamide], under “24 h”, the activity at 1 µM is 121%, the activity at 0.01 µM was found to be 131% and the activity at 0.1 µM came out at 133%.

With `O=C(Nc1cnc2ccccc2c1)c1cc([N+](=O)[O-])ccc1Cl` [Example 55, N-(3-Quinolinyl)-(2-chloro-5-nitrophenyl)carboxamide], under “24 h”, the activity at 0.001 µM worked out at 116%, the activity at 0.01 µM came to 115% and the activity at 0.1 µM was found to be 113%.

Turning to `O=C(Nc1ccc(Cl)nc1)c1cc([N+](=O)[O-])ccc1Cl` [Example 62, N-(6-Chloropyridin-3-yl)-(2-chloro-5-nitrophenyl)carboxamide], for the setting “24 h”, the activity at 0.001 µM amounted to 119%, the activity at 0.01 µM came to 115% and the activity at 0.1 µM was 132%.

As for `O=C(Nc1ccc(NC(=O)c2cc([N+](=O)[O-])ccc2Cl)nc1)c1cc([N+](=O)[O-])ccc1Cl` [Example 64, 2,5-bis(2-Chloro-5-nitrobenzoylamino)pyridine], under “24 hr”, the activity at 0.001 µM came out at 110%, the activity at 0.01 µM came to 112% and the activity at 0.1 µM turned out to be 119%.

For `O=C(Nc1nc2cc(Cl)ccc2o1)c1cc([N+](=O)[O-])ccc1Cl` [Example 75, N-(5-Chlorobenzoxazol-2-yl)-(2-chloro-5-nitrophenyl)carboxamide], the activity at 0.1 µM (24 h) is 118%.

Turning to `O=C(Nc1ncc(Br)cn1)c1cc([N+](=O)[O-])ccc1Cl` [Example 77, N-(5-Bromopyrimidin-2-yl)-(2-chloro-5-nitrophenyl)carboxamide], for the setting “24 h”, the activity at 1 µM stood at 113%, the activity at 0.001 µM came to 108%, the activity at 0.01 µM was determined as 110% and the activity at 0.1 µM turned out to be 130%.

Regarding `O=C(Nc1nc(Cl)cc(Cl)n1)c1cc([N+](=O)[O-])ccc1Cl` [Example 83, N-(4,6-Dichloropyrimidin-2-yl)-(2-chloro-5-nitrophenyl)carboxamide], the activity at 0.1 µM (24 h) stood at 126%.

With `Nc1ccc(-c2ccc(NC(=O)c3cc([N+](=O)[O-])ccc3Cl)cc2)cc1` [Example 88, N-[4-(4-Aminophenyl)phenyl]-(2-chloro-5-nitrophenyl)carboxamide mono-hydrochloride], where the note is “24 h”, the activity at 1 µM turned out to be 115% and the activity at 0.1 µM is 119%.

Regarding `O=C(Nc1ccc(Cl)nn1)c1cc([N+](=O)[O-])ccc1Cl` [Example 89], under “24 hr”, the “Facilitating activity to produce leptin” value came out at 123.2%.

For `Cc1c(C)c2c(c(C)c1O)C(=O)CC(C)(COc1ccc(NC(=O)c3cc([N+](=O)[O-])ccc3Cl)cc1)O2` (centres unmarked) [Example 92, N-[4-(6-Hydroxy-2,5,7,8-tetramethyl-4-oxochroman-2-ylmethoxy)phenyl]-(2-chloro-5-nitrophenyl)carboxamide], the activity at 0.1 µM (24 h) came out at 116%.

Consider `CS(=O)(=O)Nc1ccc(-c2ccc(NC(=O)c3cc([N+](=O)[O-])ccc3Cl)cc2)cc1` [Example 93, N-[4-[4-(Methanesulfonylamino)phenyl]phenyl]-(2-chloro-5-nitrophenyl)carboxamide], for which the activity at 1 µM (24 h) came out at 114%.

On to `Cc1ccc(S(=O)(=O)Nc2ccc(-c3ccc(NC(=O)c4cc([N+](=O)[O-])ccc4Cl)cc3)cc2)cc1` [Example 94, N-[4-[4-(4-Toluenesulfonylamino)phenyl]phenyl]-(2-chloro-5-nitrophenyl)carboxamide], for which, where the note is “24 h”, the activity at 1 µM amounted to 116% and the activity at 0.1 µM was found to be 110%.

Regarding `Cc1nnc(NS(=O)(=O)c2ccc(NC(=O)c3cc([N+](=O)[O-])ccc3Cl)cc2)s1` [Example 101, N-[4-[(5-Methyl-[1,3,4]thiadiazol-2-yl)aminosulfonyl]phenyl]-(2-chloro-5-nitrophenyl)carboxamide], under “24 h”, the activity at 1 µM is 117%.

`CC(=O)Nc1ccc(-c2ccc(NC(=O)c3cc([N+](=O)[O-])ccc3Cl)cc2)cc1` [Example 118, N-[4-(4-Acetylaminophenyl)phenyl]-(2-chloro-5-nitrophenyl)carboxamide]: under “24 h”, the activity at 1 µM was 134%, the activity at 0.001 µM turned out to be 114%, the activity at 0.01 µM amounted to 115% and the activity at 0.1 µM turned out to be 127%.

Take `O=C(Nc1ccc(-c2ccc(NC(=O)c3cc([N+](=O)[O-])ccc3Cl)cc2)cc1)c1ccccc1` [Example 120, N-[4-(4-Benzoylaminophenyl)phenyl]-(2-chloro-5-nitrophenyl)carboxamide]: for the setting “24 h”, the activity at 1 µM worked out at 121%, the activity at 0.001 µM came out at 108%, the activity at 0.01 µM worked out at 110% and the activity at 0.1 µM worked out at 119%.

Turning to `Cc1ccc(C(=O)Nc2ccc(NC(=O)c3cc([N+](=O)[O-])ccc3Cl)cc2)cc1` [Example 121, N-[4-(4-Methylbenzoyl)aminophenyl]-(2-chloro-5-nitrophenyl)carboxamide], the activity at 0.1 µM (24 h) came to 114%.

Take `O=C(Nc1ccc(-c2ccc(NC(=O)c3cc([N+](=O)[O-])ccc3Cl)cc2)cc1)c1cccnc1` [Example 124, N-[4-[4-(Pyridin-3-ylcarbonylamino)phenyl]phenyl]-(2-chloro-5-nitrophenyl)carboxamide]: under “24 h”, the activity at 1 µM was determined as 124%, the activity at 0.001 µM stood at 113%, the activity at 0.01 µM worked out at 113% and the activity at 0.1 µM was determined as 146%.

`O=C(Nc1ccc(-c2ccc(NC(=O)c3cc([N+](=O)[O-])ccc3Cl)cc2)cc1)c1ccncc1` [Example 126, N-[4-[4-(Pyridin-4-ylcarbonylamino)phenyl]phenyl]-(2-chloro-5-nitrophenyl)carboxamide]: for the setting “24 h”, the activity at 1 µM is 142%, the activity at 0.01 µM amounted to 109% and the activity at 0.1 µM came to 121%.

Take `O=C(Nc1ccc(NS(=O)(=O)c2ccccc2)cc1)c1cc([N+](=O)[O-])ccc1Cl` [Example 127, N-(4-Benzenesulfonylaminophenyl)-(2-chloro-5-nitrophenyl)carboxamide]: the activity at 1 µM (24 h) was 115%.

`CCS(=O)(=O)Nc1ccc(-c2ccc(NC(=O)c3cc([N+](=O)[O-])ccc3Cl)cc2)cc1` [Example 130, N-[4-(4-Ethanesulfonylaminophenyl)phenyl]-(2-chloro-5-nitrophenyl)carboxamide]: under “24 h”, the activity at 1 µM is 116% and the activity at 0.1 µM was 123%.

Turning to `O=C(Nc1cnccn1)c1cc([N+](=O)[O-])ccc1Cl` [Example 140, N-(Pyrazin-2-yl)-(2-chloro-5-nitrophenyl)carboxamide], the activity at 0.1 µM (24 h) was found to be 114%.

In the case of `Cl.O=C(Nc1ccncc1)c1cc([N+](=O)[O-])ccc1Cl` [Example 146, N-(Pyridin-4-yl)-(2-chloro-5-nitrophenyl)carboxamide Hydrochloride], where the note is “24 h”, the activity at 1 µM worked out at 126%, the activity at 0.01 µM worked out at 112% and the activity at 0.1 µM came out at 138%.
